Data taken from US20220047548A1, “SYNERGISTIC COMPOSITIONS COMPRISING (R)-2-(2-OXOPYRROLIDIN-1-YL)BUTANAMIDE AND (S)-2-(2-e OXOPYRROLEDIN-1-YL)BUTANAMEDE IN A NON-RACEMIC RATIO” (Metys Pharmaceuticals AG, priority 2018, published 2022).
Marks after values point to notes of the source that are not given here.

How the values were obtained:
[1] = test system: PTZ-induced kindling in mice; experiment: PTZ-induced kindling test in mice (tonic and clonic convulsions kindled by once-daily pentylenetetrazole); format: in vivo, mice (adult male CD1); conditions: for antiepileptic effect in comparison experiment (in words): Tab. 2 comparison
Protocol: Adult male CD1 mice (Envigo, Italy 20-25 g weight at arrival), were used. The cages were brought into the experimental room the day before the experiment, for acclimatization purposes. Each treatment group consisted of 15 mice. Mice were fed a standard laboratory diet. Food and water were freely available. Room temperature and relative humidity were constantly kept at 22±2° C. and 55±15%, respectively, and a 12-hour light and 12-hour darkness cycles maintained.
Levetiracetam (batch P102-14050 supplied by Astatech), etiracetam (supplied by Shaanxi Swiden Biotech Co., Ltd. Catalog number E932970), or mixtures of 1 part levetiracetam and 1 part etiracetam (1-to-3 R-to-S-etiracetam), or of 1 part levetiracetam and 0.5 part etiracetam (1-to-5 R-to-S-etiracetam), were dissolved in 1% carboxymethylcellulose (CMC) solution at a formulation strength of 55 mg/mL and orally administered once per day. Compounds were administered every day, from day 1 to day 11, 60 min before PTZ (55 mg/kg i.p.). PTZ was dissolved in saline; following i.p. injection, seizures developed in vehicle-treated mice within about 20 minutes.
The test was performed according to Gower et al. (Eur. J. Pharmacol. 222, 1992, 193-203). Separate groups of male mice were administered orally once daily for 11 consecutive days with levetiracetam (10, 30, or 60 mg/kg p.o.); etiracetam (30 mg/kg p.o.); or 1-to-3 R-to-S-etiracetam (30 mg/kg p.o.); or 1-to-5 R-to-S-etiracetam, (30 mg/kg p.o.); or oral vehicle, 60 min prior to administration of PTZ (pentylenetetrazole, 55.0 mg/kg i.p.). Immediately after the PTZ injection, the mice were placed in individual cages and observed for tonic and clonic seizures.
A chi-square test was used to verify significance between two means of behavioral results. Data were analyzed by the Social Science Statistics Program. P values ≤0.05 were considered significant (link https://www.socscistatistics.com/tests/chisquare/default2.aspx).

[2] = test system: electroshock-induced amnesia; conditions: sub-cutaneous injection; rat; cited from earlier work
[3] = Table 2 comparison, 30 mg/kg p.o. once daily 60 min before PTZ 55 mg/kg i.p., Day 1
[4] = Table 2 comparison, 30 mg/kg p.o. once daily 60 min before PTZ 55 mg/kg i.p., Day 2
[5] = Table 2 comparison, 30 mg/kg p.o. once daily 60 min before PTZ 55 mg/kg i.p., Day 3
[6] = Table 2 comparison, 30 mg/kg p.o. once daily 60 min before PTZ 55 mg/kg i.p., Day 4
[7] = Table 2 comparison, 30 mg/kg p.o. once daily 60 min before PTZ 55 mg/kg i.p., Day 5
[8] = Table 2 comparison, 30 mg/kg p.o. once daily 60 min before PTZ 55 mg/kg i.p., Day 6
[9] = Table 2 comparison, 30 mg/kg p.o. once daily 60 min before PTZ 55 mg/kg i.p., Day 7
[10] = Table 2 comparison, 30 mg/kg p.o. once daily 60 min before PTZ 55 mg/kg i.p., Day 8
[11] = Table 2 comparison, 30 mg/kg p.o. once daily 60 min before PTZ 55 mg/kg i.p., Day 9
[12] = Table 2 comparison, 30 mg/kg p.o. once daily 60 min before PTZ 55 mg/kg i.p., Day 10
[13] = Table 2 comparison, 30 mg/kg p.o. once daily 60 min before PTZ 55 mg/kg i.p., Day 11

**Q.** Which “effect on PTZ-induced kindling (in words)” value ([1]; 10 mg/kg p.o., at the end of the treatment (day 11)) does the source give for `CC[C@@H](C(N)=O)N1CCCC1=O` [levetiracetam, (S)-2-(2-oxopyrrolidin-1-yl)butanamide] here?
**A.** The value was “all mice showed tonic or clonic convulsions”.

**Q.** What about the “antiepileptic effect in comparison experiment (in words)” value ([1]; 30 mg/kg p.o.) of the same compound?
**A.** The value was “moderately effective”.

**Q.** What about the “effect on PTZ-induced kindling (in words)” value ([1]; 30 mg/kg p.o., dose-response experiment (Tab. 1)) of the same compound?
**A.** Its value is “intermediate reduction of the effect”.

**Q.** And the “incidence of clonic convulsion in the first 6 days” value ([1]; 60 mg/kg p.o. once daily, days 1-6)?
**A.** The value was at most 20%.

**Q.** And the “effect on PTZ-induced kindling vs vehicle treatment group (in words)” value ([1]; 60 mg/kg p.o., eighth to eleventh day of treatment)?
**A.** Its value is “statistically significant difference in the proportion of mice exhibiting seizures”.

**Q.** What about the “percentage of mice per group with clonic convulsions” value (“percentage of mice per group” below) ([1]; Table 1, 10 mg/kg p.o. once daily 60 min before PTZ 55 mg/kg i.p., Day 1) of the same compound?
**A.** The value was 6.6%.

**Q.** And the “percentage of mice per group” value ([1]; Table 1, 10 mg/kg p.o. once daily 60 min before PTZ 55 mg/kg i.p., Day 2)?
**A.** The value was 6.6%.

**Q.** And the “percentage of mice per group” value ([1]; Table 1, 10 mg/kg p.o. once daily 60 min before PTZ 55 mg/kg i.p., Day 3)?
**A.** Its value is 20.0%.

**Q.** What about the “percentage of mice per group” value ([1]; Table 1, 10 mg/kg p.o. once daily 60 min before PTZ 55 mg/kg i.p., Day 4) of the same compound?
**A.** The value was 26.6%.

**Q.** And the “percentage of mice per group” value ([1]; Table 1, 10 mg/kg p.o. once daily 60 min before PTZ 55 mg/kg i.p., Day 5)?
**A.** The value was 26.6%.

**Q.** And the “percentage of mice per group” value ([1]; Table 1, 10 mg/kg p.o. once daily 60 min before PTZ 55 mg/kg i.p., Day 6)?
**A.** Its value is 53.0%.

**Q.** What about the “percentage of mice per group” value ([1]; Table 1, 10 mg/kg p.o. once daily 60 min before PTZ 55 mg/kg i.p., Day 7) of the same compound?
**A.** Its value is 53.3%.

**Q.** And the “percentage of mice per group” value ([1]; Table 1, 10 mg/kg p.o. once daily 60 min before PTZ 55 mg/kg i.p., Day 8)?
**A.** The value was 73.3%.

**Q.** What about the “percentage of mice per group” value ([1]; Table 1, 10 mg/kg p.o. once daily 60 min before PTZ 55 mg/kg i.p., Day 9) of the same compound?
**A.** The value was 86.6%.

**Q.** And the “percentage of mice per group” value ([1]; Table 1, 10 mg/kg p.o. once daily 60 min before PTZ 55 mg/kg i.p., Day 10)?
**A.** Its value is 86.6%.

**Q.** What about the “percentage of mice per group” value ([1]; Table 1, 10 mg/kg p.o. once daily 60 min before PTZ 55 mg/kg i.p., Day 11) of the same compound?
**A.** Its value is 100%.

**Q.** What about the “percentage of mice per group” value ([1]; Table 1, 30 mg/kg p.o. once daily 60 min before PTZ 55 mg/kg i.p., Day 1) of the same compound?
**A.** The value was 0%.

**Q.** What about the “percentage of mice per group” value ([1]; Table 1, 30 mg/kg p.o. once daily 60 min before PTZ 55 mg/kg i.p., Day 2) of the same compound?
**A.** The value was 6.6%.

**Q.** And the “percentage of mice per group” value ([1]; Table 1, 30 mg/kg p.o. once daily 60 min before PTZ 55 mg/kg i.p., Day 3)?
**A.** Its value is 13.3%.

**Q.** What about the “percentage of mice per group” value ([1]; Table 1, 30 mg/kg p.o. once daily 60 min before PTZ 55 mg/kg i.p., Day 4) of the same compound?
**A.** The value was 20.0%.

**Q.** What about the “percentage of mice per group” value ([1]; Table 1, 30 mg/kg p.o. once daily 60 min before PTZ 55 mg/kg i.p., Day 5) of the same compound?
**A.** Its value is 20.0%.

**Q.** What about the “percentage of mice per group” value ([1]; Table 1, 30 mg/kg p.o. once daily 60 min before PTZ 55 mg/kg i.p., Day 6) of the same compound?
**A.** The value was 26.6%.

**Q.** What about the “percentage of mice per group” value ([1]; Table 1, 30 mg/kg p.o. once daily 60 min before PTZ 55 mg/kg i.p., Day 7) of the same compound?
**A.** The value was 33.3%.

**Q.** What about the “percentage of mice per group” value ([1]; Table 1, 30 mg/kg p.o. once daily 60 min before PTZ 55 mg/kg i.p., Day 8) of the same compound?
**A.** The value was 46.6%.

**Q.** What about the “percentage of mice per group” value ([1]; Table 1, 30 mg/kg p.o. once daily 60 min before PTZ 55 mg/kg i.p., Day 9) of the same compound?
**A.** Its value is 66.6%.

**Q.** What about the “percentage of mice per group” value ([1]; Table 1, 30 mg/kg p.o. once daily 60 min before PTZ 55 mg/kg i.p., Day 10) of the same compound?
**A.** Its value is 66.6%.

**Q.** And the “percentage of mice per group” value ([1]; Table 1, 30 mg/kg p.o. once daily 60 min before PTZ 55 mg/kg i.p., Day 11)?
**A.** The value was 73.3%.

**Q.** What about the “percentage of mice per group” value ([1]; Table 1, 60 mg/kg p.o. once daily 60 min before PTZ 55 mg/kg i.p., Day 1) of the same compound?
**A.** The value was 0%.

**Q.** And the “percentage of mice per group” value ([1]; Table 1, 60 mg/kg p.o. once daily 60 min before PTZ 55 mg/kg i.p., Day 2)?
**A.** Its value is 0%.

**Q.** What about the “percentage of mice per group” value ([1]; Table 1, 60 mg/kg p.o. once daily 60 min before PTZ 55 mg/kg i.p., Day 3) of the same compound?
**A.** Its value is 6.6%.

**Q.** What about the “percentage of mice per group” value ([1]; Table 1, 60 mg/kg p.o. once daily 60 min before PTZ 55 mg/kg i.p., Day 4) of the same compound?
**A.** The value was 20.0%.

**Q.** What about the “percentage of mice per group” value ([1]; Table 1, 60 mg/kg p.o. once daily 60 min before PTZ 55 mg/kg i.p., Day 5) of the same compound?
**A.** The value was 20.0%.

**Q.** And the “percentage of mice per group” value ([1]; Table 1, 60 mg/kg p.o. once daily 60 min before PTZ 55 mg/kg i.p., Day 6)?
**A.** Its value is 20.0%.

**Q.** And the “percentage of mice per group” value ([1]; Table 1, 60 mg/kg p.o. once daily 60 min before PTZ 55 mg/kg i.p., Day 7)?
**A.** The value was 26.6%.

**Q.** What about the “percentage of mice per group” value ([1]; Table 1, 60 mg/kg p.o. once daily 60 min before PTZ 55 mg/kg i.p., Day 8) of the same compound?
**A.** The value was 26.6^# %.

**Q.** What about the “percentage of mice per group” value ([1]; Table 1, 60 mg/kg p.o. once daily 60 min before PTZ 55 mg/kg i.p., Day 9) of the same compound?
**A.** The value was 33.3^# %.

**Q.** What about the “percentage of mice per group” value ([1]; Table 1, 60 mg/kg p.o. once daily 60 min before PTZ 55 mg/kg i.p., Day 10) of the same compound?
**A.** Its value is 33.3^# %.

**Q.** And the “percentage of mice per group” value ([1]; Table 1, 60 mg/kg p.o. once daily 60 min before PTZ 55 mg/kg i.p., Day 11)?
**A.** The value was 40%.

**Q.** And the “percentage of mice per group” value [1, 3]?
**A.** Its value is 0%.

**Q.** What about the “percentage of mice per group” value [1, 4] of the same compound?
**A.** The value was 0%.

**Q.** And the “percentage of mice per group” value [1, 5]?
**A.** The value was 6.6%.

**Q.** What about the “percentage of mice per group” value [1, 6] of the same compound?
**A.** The value was 13.3%.

**Q.** And the “percentage of mice per group” value [1, 7]?
**A.** Its value is 20.0%.

**Q.** And the “percentage of mice per group” value [1, 8]?
**A.** The value was 26.6%.

**Q.** And the “percentage of mice per group” value [1, 9]?
**A.** The value was 33.3%.

**Q.** And the “percentage of mice per group” value [1, 10]?
**A.** The value was 46.6%.

**Q.** What about the “percentage of mice per group” value [1, 11] of the same compound?
**A.** The value was 66.6%.

**Q.** What about the “percentage of mice per group” value [1, 12] of the same compound?
**A.** Its value is 73.3%.

**Q.** And the “percentage of mice per group” value [1, 13]?
**A.** The value was 73.3%.

**Q.** Which results are given for `CCC(C(N)=O)N1CCCC1=O` (racemic) [etiracetam, 2-(2-oxopyrrolidin-1-yl)butanamide]?
**A.** antiepileptic effect in comparison experiment (in words) ([1]; 30 mg/kg p.o.): ineffective; percentage of mice per group with clonic convulsions [1, 3]: 0%; percentage of mice per group with clonic convulsions [1, 4]: 6.6%; percentage of mice per group with clonic convulsions [1, 5]: 13.3%; percentage of mice per group with clonic convulsions [1, 6]: 26.6%; percentage of mice per group with clonic convulsions [1, 7]: 26.6%; percentage of mice per group with clonic convulsions [1, 8]: 46.6%; percentage of mice per group with clonic convulsions [1, 9]: 53.3%; percentage of mice per group with clonic convulsions [1, 10]: 66.6%; percentage of mice per group with clonic convulsions [1, 11]: 86.6%; percentage of mice per group with clonic convulsions [1, 12]: 93.3%; percentage of mice per group with clonic convulsions [1, 13]: 100%

**Q.** For `CC[C@H](C(N)=O)N1CCCC1=O` [R-etiracetam, (R)-2-(2-oxopyrrolidin-1-yl)butanamide], which “potency relative to racemic etiracetam” value [2] is on record?
**A.** Its value is 10 fold.
